In assay [1] the target is Norepinephrine transporter (Rattus norvegicus, UniProt Q9WTR4). Briefly: In vitro binding affinity was determined against NA (noradrenaline) reuptake site of rat in presence of [3H]nisoxetine radioligand.
Assay [2] addresses Sodium-dependent serotonin transporter (Rattus norvegicus, UniProt P31652). Briefly: In vitro binding affinity was determined against serotonin reuptake site of rat in presence of [3H]paroxetine radioligand.
For assay [3], the target named is T1, Adrenergic receptor alpha-2 (Rattus norvegicus, UniProt P22086+P19328+P22909).
T1 sequence (P22086 whole entry): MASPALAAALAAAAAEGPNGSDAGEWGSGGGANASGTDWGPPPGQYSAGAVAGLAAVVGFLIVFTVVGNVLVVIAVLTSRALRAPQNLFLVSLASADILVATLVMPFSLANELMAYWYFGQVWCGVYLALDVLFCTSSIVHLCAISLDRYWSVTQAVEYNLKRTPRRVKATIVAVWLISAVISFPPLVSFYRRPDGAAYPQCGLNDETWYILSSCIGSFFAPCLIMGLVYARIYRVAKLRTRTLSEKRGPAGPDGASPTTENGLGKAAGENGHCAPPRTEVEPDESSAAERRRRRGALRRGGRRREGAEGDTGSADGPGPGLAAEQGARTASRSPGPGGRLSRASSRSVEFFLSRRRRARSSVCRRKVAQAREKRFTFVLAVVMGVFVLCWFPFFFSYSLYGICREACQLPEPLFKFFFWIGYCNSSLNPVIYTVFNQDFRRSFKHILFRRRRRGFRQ
T1 sequence (P19328 whole entry): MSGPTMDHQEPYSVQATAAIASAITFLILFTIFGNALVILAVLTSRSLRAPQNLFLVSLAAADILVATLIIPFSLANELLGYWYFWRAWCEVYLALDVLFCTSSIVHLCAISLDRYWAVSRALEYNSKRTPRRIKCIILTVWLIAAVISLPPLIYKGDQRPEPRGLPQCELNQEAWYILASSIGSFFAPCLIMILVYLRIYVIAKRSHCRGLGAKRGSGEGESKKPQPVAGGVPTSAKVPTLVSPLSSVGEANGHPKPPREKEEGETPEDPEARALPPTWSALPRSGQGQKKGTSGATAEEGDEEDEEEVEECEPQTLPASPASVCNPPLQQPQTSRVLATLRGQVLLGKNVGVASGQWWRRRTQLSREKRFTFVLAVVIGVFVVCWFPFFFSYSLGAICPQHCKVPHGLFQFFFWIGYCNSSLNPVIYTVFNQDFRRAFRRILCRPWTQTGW
T1 sequence (P22909 whole entry): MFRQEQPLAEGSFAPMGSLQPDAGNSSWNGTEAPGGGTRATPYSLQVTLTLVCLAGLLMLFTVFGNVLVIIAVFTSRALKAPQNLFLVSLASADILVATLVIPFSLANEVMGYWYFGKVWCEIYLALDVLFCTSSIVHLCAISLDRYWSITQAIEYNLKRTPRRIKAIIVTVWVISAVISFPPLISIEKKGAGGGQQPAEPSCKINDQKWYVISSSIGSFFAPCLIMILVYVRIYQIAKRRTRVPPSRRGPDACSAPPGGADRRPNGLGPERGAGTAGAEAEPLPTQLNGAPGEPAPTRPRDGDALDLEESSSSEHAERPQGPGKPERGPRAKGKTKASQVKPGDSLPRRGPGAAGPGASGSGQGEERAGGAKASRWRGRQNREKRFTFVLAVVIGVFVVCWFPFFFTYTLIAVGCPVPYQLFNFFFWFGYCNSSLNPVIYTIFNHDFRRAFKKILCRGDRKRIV
Description: In vitro binding affinity against alpha-2 adrenergic receptor of rat in presence of [3H]-RX 821002 radioligand. The format is protein assay.

In assay [4] the target is T2, Adrenergic receptor alpha-1 (Rattus norvegicus, UniProt P15823+P23944+P43140).
T2 sequence (P15823 whole entry): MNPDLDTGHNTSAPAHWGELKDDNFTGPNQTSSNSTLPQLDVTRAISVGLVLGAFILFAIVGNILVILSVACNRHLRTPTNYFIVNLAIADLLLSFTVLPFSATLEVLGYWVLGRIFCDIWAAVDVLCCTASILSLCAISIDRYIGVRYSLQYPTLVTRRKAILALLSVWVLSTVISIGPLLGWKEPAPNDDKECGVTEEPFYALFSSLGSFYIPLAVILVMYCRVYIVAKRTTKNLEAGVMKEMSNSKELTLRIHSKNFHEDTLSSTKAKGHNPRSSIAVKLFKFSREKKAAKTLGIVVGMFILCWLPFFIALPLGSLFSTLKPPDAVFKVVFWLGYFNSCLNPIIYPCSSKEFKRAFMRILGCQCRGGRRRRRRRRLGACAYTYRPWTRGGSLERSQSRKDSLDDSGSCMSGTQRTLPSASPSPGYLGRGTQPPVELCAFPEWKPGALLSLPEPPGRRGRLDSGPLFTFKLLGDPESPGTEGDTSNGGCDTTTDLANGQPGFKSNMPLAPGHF
T2 sequence (P23944 whole entry): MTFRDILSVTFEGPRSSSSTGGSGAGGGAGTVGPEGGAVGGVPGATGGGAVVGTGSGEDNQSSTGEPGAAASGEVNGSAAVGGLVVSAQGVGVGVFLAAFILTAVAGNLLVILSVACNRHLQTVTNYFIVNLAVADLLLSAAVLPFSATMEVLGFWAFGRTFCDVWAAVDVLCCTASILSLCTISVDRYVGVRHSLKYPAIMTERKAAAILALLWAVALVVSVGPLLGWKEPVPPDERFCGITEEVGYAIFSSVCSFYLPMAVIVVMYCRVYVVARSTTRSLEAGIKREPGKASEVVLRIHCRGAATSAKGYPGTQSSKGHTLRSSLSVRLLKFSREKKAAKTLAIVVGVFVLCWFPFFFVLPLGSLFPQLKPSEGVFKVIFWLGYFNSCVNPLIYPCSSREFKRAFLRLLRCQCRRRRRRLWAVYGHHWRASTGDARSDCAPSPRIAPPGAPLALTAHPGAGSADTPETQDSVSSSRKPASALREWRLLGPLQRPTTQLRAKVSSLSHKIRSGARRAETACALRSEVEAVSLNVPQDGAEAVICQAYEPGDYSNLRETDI
T2 sequence (P43140 whole entry): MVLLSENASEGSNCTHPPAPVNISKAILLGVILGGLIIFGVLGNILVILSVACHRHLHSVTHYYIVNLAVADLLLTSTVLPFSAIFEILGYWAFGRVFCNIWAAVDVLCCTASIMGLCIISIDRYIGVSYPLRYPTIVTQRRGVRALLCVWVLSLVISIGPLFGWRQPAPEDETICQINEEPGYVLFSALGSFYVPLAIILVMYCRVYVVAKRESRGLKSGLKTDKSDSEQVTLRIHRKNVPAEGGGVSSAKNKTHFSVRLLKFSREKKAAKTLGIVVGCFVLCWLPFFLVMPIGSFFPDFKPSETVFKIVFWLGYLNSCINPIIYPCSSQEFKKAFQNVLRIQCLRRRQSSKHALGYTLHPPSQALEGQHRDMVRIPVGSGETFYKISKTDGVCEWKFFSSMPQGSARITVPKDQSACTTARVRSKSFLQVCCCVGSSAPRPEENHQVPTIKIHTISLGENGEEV
Briefly: In vitro binding affinity against alpha-1 adrenergic receptor of rat in presence of [3H]-prazosin radioligand. The format is protein assay.

Sequence of Sodium-dependent serotonin transporter (P31652 whole entry): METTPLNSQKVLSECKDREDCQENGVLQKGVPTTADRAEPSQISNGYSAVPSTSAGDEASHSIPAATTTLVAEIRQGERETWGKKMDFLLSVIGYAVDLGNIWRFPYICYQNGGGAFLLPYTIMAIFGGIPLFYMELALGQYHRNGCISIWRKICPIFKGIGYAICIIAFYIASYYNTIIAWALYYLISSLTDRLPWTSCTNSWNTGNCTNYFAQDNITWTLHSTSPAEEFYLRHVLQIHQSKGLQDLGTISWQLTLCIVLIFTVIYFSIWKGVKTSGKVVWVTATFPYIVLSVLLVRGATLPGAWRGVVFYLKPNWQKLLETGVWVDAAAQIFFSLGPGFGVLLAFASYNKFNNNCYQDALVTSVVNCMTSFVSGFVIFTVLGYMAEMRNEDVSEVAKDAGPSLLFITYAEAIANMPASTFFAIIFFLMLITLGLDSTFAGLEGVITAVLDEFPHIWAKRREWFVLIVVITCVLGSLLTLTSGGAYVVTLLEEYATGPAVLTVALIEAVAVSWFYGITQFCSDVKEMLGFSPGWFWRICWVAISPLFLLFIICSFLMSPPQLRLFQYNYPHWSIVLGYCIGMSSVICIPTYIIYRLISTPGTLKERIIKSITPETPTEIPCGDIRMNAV
Sequence of Norepinephrine transporter (Q9WTR4 whole entry): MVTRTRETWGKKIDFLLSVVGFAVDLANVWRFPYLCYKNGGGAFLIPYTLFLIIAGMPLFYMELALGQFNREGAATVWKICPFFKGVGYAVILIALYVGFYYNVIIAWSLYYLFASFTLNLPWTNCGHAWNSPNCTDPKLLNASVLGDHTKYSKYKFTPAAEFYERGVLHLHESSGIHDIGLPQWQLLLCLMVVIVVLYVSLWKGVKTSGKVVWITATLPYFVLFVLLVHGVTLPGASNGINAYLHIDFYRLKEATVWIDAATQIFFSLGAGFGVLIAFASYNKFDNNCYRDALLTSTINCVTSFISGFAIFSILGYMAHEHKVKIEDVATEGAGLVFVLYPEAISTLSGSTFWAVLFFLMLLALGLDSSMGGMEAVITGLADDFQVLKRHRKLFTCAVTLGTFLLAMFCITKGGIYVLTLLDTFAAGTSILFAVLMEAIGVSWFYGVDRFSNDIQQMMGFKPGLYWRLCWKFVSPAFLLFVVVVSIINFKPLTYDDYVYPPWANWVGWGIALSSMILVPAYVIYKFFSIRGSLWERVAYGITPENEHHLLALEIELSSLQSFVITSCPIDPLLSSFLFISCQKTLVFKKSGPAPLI

With `C1=C(Cc2c[nH]cn2)CCc2ccccc21`, the Ki in assay [1] is 794 nM; in assay [2], 631 nM. Besides, the “Log Ki” value was -8.9 in assay [3] and -7.3 in assay [4].
On the same counts, the results for `C[C@@]1(C[C@@H]2CN=CN2)CCc2ccccc2C1` are 200 nM, 10 nM, -7.1 and -6.
On the same counts, the results for `C1=NCC(CC2=Cc3ccccc3C2)N1` (stereo unspecified) are 31.6 nM, 79.4 nM, -7.8 and -5.9.
As for `Clc1cccc2c1CC(CC1CN=CN1)CC2` (stereo unspecified), the values for the Ki in assay [1] and in assay [2] were 100 nM and 5.01 nM, respectively. The “Log Ki” value in assay [3] is reported as -8.8; in assay [4], -6.5.
As for `NC1=NCC(CC2=Cc3ccccc3CC2)O1` (stereo unspecified), the results for the inhibition constant (Ki) in assay [1] and in assay [2] were 1000 nM and 63.1 nM, respectively. Moreover, the “Log Ki” value in assay [3] is given as -6.
Consider `C1=C(CC2=NCCN2)CCc2ccccc21` [NAPAMEZOLE], for which the inhibition constant (Ki) in assay [1] is over 1000 nM; in assay [2] it was 200 nM. Moreover, the “Log Ki” value in assay [3] is on record as -8.5; in assay [4] it was -7.
On to `C1=NC[C@@H]([C@H]2[C@@H]3CCc4ccccc4[C@@H]32)N1`, for which the figures for the Ki in assay [1] and in assay [2] were 251 nM and over 3160 nM, respectively. For the same molecule, the “Log Ki” value in assay [3] was -6.4.
As to `Cc1cccc2c1C=C(CC1CN=CN1)CC2` (stereo unspecified), the inhibition constant Ki in assay [1] is 1000 nM; in assay [2], 12.6 nM. The “Log Ki” value in assay [3] is recorded as -6.8; in assay [4], -6.2.
For `C1=NC[C@H](C2C[C@@]23CCc2ccccc2C3)N1` (stereo partly specified) the same measures were 398 nM, 25.1 nM, -6.6 and -6.
In the case of `Fc1ccc2c(c1)CC(CC1CN=CN1)C2` (stereo unspecified), in assay [1], the Ki was 316 nM. Also, the “Log Ki” value in assay [3] is -8.1; in assay [4], -6.2.
In the case of `CC1(C)CC(CC2CN=CN2)=Cc2ccccc21` (stereo unspecified), the inhibitory constant (Ki) is 39.8 nM in assay [1] and over 10000 nM in assay [2]. The “Log Ki” value in assay [3] is -6; in assay [4] it was -6.1.
Take `NC1=NC(CC2=Cc3ccccc3CC2)CO1` (stereo unspecified): the figures for the Ki in assay [1] and in assay [2] were 501 nM and 158 nM, respectively. For the same molecule, in assay [3], the “Log Ki” value is listed as -7.3.
Take `NC1=NCC(CC2=Cc3c(Cl)cccc3CC2)O1` (stereo unspecified): the Ki in assay [1] is over 1000 nM. In addition, the “Log Ki” value in assay [3] is on record as -6.2; in assay [4] it was -6.5.
As for `NC1=NC(CC2=Cc3ccccc3CC2)CN1` (stereo unspecified), the inhibitory constant (Ki) in assay [1] is 79.4 nM; in assay [2], 39.8 nM. Also, the “Log Ki” value in assay [3] is -6.5; in assay [4] it was -7.2.
For the molecule `Fc1ccc2oc(CC3CN=CN3)cc2c1` (stereo unspecified), the results for the Ki in assay [1] and in assay [2] were 794 nM and 158 nM, respectively. For the same molecule, the “Log Ki” value in assay [3] is reported as -7.
Take `C1=NCC(CC2CCc3ccccc3C2)N1` (stereo unspecified): the inhibition constant Ki was 100 nM in assay [1] and 10 nM in assay [2]. Moreover, the “Log Ki” value in assay [3] was -7.8; in assay [4], -6.1.
In the case of `C1=NCC([C@H]2[C@@H]3Cc4ccccc4C[C@@H]32)N1` (stereo partly specified), the inhibition constant (Ki) in assay [2] was 631 nM. The “Log Ki” value in assay [3] and in assay [4] was -6.3 throughout.
Take `COc1ccc2c(c1)C=C(CC1CN=CN1)CC2` (stereo unspecified): the inhibition constant (Ki) is over 1000 nM in assay [1] and 200 nM in assay [2]. For the same molecule, the “Log Ki” value is reported as -6.3 in assay [3] and -5.6 in assay [4].
As to `C[C@@]1(C[C@H]2CN=CN2)CCc2ccccc2C1`, the inhibitory constant (Ki) was 63.1 nM in assay [1] and 31.6 nM in assay [2]. Further, the “Log Ki” value is listed as -6.6 in assay [3] and -5.7 in assay [4].
As to `C1=NC[C@@H](C2CC23Cc2ccccc2C3)N1` (stereo partly specified), the Ki was 316 nM in assay [1] and 398 nM in assay [2]. The “Log Ki” value is given as -7.1 in assay [3] and -5.2 in assay [4].
For `Cc1ccc2c(c1)C=C(CC1CN=CN1)CC2` (stereo unspecified) the same measures were 1000 nM, 63.1 nM, -6.8 and -6.4.
Regarding `Fc1cccc2c1CC(CC1CN=CN1)C2` (stereo unspecified), the Ki in assay [1] and in assay [2] was 100 nM each time. Also, the results for the “Log Ki” value in assay [3] and in assay [4] were -8.9 and -6.8, respectively.
Regarding `C1=NC[C@H](C2CC23Cc2ccccc2C3)N1` (stereo partly specified), the Ki in assay [1] was 31.6 nM; in assay [2] it was 50.1 nM. In addition, the “Log Ki” value in assay [3] is on record as -9.1; in assay [4] it was -6.9.
For `C1=NC(CC2CCc3ccccc3O2)CN1` (stereo unspecified) the same measures were 794 nM, 501 nM, -7.3 and -6.5.
On the same counts, the results for `CC1(CC2=Cc3ccccc3CC2)CN=CN1` (stereo unspecified) are 316 nM, 63.1 nM, -6.1 and -5.9.
For `C1=NCC(CC2=Cc3ccccc3OC2)N1` (stereo unspecified) the same measures were 63.1 nM, 251 nM, -6.9 and -5.8.
Take `Cc1ccc2c(c1)CCC(CC1CN=CN1)=C2` (stereo unspecified): the results for the inhibitory constant (Ki) in assay [1] and in assay [2] were over 1000 nM and 15.8 nM, respectively. In addition, the “Log Ki” value in assay [3] was -6.4.
As for `COc1cccc2c1C=C(CC1CN=CN1)CC2` (stereo unspecified), the inhibitory constant (Ki) in assay [1] is 1000 nM. The “Log Ki” value was -7.6 in assay [3] and -6.8 in assay [4].
As to `Cc1ccc2c(c1)CCC(CC1CN=C(N)O1)=C2` (stereo unspecified), the Ki in assay [1] was over 1000 nM; in assay [2], 79.4 nM. In addition, the “Log Ki” value in assay [3] is listed as -5.8.

(Values after ChEMBL document CHEMBL1134363 (J Med Chem, 2001).)
